Calls of active or inactive are those of the source. No rule for the calls is given here.
Experiments:
Test in all cases: kinase panel binding selectivity, selectivity assay, biochemical, KINOMEscan (AID 1982)
[1] = target: Cyclin-dependent kinase 19 (Homo sapiens) (UniProt Q9BWU1); settings: KINOMEscan 353-kinase binding panel, qPCR; CDK11; at 10 µM; active compounds read low
BMPR1A = settings: KINOMEscan 353-kinase binding panel, qPCR, at 10 µM, active compounds read low
[2] = target: Insulin-like growth factor 1 receptor (Homo sapiens) (UniProt P08069); settings: KINOMEscan 353-kinase binding panel, qPCR; IGF1R; at 10 µM; active compounds read low
[3] = target: Serine/threonine-protein kinase BRSK1 (Homo sapiens) (UniProt Q8TDC3); settings: KINOMEscan 353-kinase binding panel, qPCR, at 10 µM, active compounds read low
[4] = target: Mitogen-activated protein kinase 10 (Homo sapiens) (UniProt P53779); settings: KINOMEscan 353-kinase binding panel, qPCR; JNK3; at 10 µM; active compounds read low
SRPK2 = settings: KINOMEscan 353-kinase binding panel, qPCR, at 10 µM, active compounds read low
[5] = target: Receptor tyrosine-protein kinase erbB-2 (Homo sapiens) (UniProt P04626); settings: KINOMEscan 353-kinase binding panel, qPCR; ERBB2; at 10 µM; active compounds read low
RPS6KA1(Kin.Dom.1) = settings: KINOMEscan 353-kinase binding panel, qPCR, at 10 µM, active compounds read low
[6] = target: Platelet-derived growth factor receptor beta (Homo sapiens) (UniProt P09619); settings: KINOMEscan 353-kinase binding panel, qPCR; PDGFRB; at 10 µM; active compounds read low
RIPK2 = settings: KINOMEscan 353-kinase binding panel, qPCR, at 10 µM, active compounds read low
NEK9 = settings: KINOMEscan 353-kinase binding panel, qPCR, at 10 µM, active compounds read low
[7] = target: cGMP-dependent protein kinase 1 (Homo sapiens) (UniProt Q13976); settings: KINOMEscan 353-kinase binding panel, qPCR; PRKG1; at 10 µM; active compounds read low
[8] = target: Tyrosine-protein kinase Srms (Homo sapiens) (UniProt Q9H3Y6); settings: KINOMEscan 353-kinase binding panel, qPCR, at 10 µM, active compounds read low
TEC = settings: KINOMEscan 353-kinase binding panel, qPCR, at 10 µM, active compounds read low
FGFR2 = settings: KINOMEscan 353-kinase binding panel, qPCR, at 10 µM, active compounds read low
FGR = settings: KINOMEscan 353-kinase binding panel, qPCR, at 10 µM, active compounds read low
YSK1 = settings: KINOMEscan 353-kinase binding panel, qPCR, at 10 µM, active compounds read low
TGFBR1 = settings: KINOMEscan 353-kinase binding panel, qPCR, at 10 µM, active compounds read low
[9] = target: Serine/threonine-protein kinase MARK2 (Homo sapiens) (UniProt Q7KZI7); settings: KINOMEscan 353-kinase binding panel, qPCR, at 10 µM, active compounds read low
RIOK2 = settings: KINOMEscan 353-kinase binding panel, qPCR, at 10 µM, active compounds read low
[10] = target: RAC-beta serine/threonine-protein kinase (Homo sapiens) (UniProt P31751); settings: KINOMEscan 353-kinase binding panel, qPCR; AKT2; at 10 µM; active compounds read low
[11] = target: Leukocyte tyrosine kinase receptor (Homo sapiens) (UniProt P29376); settings: KINOMEscan 353-kinase binding panel, qPCR; LTK; at 10 µM; active compounds read low
[12] = target: Tyrosine-protein kinase receptor UFO (Homo sapiens) (UniProt P30530); settings: KINOMEscan 353-kinase binding panel, qPCR; AXL; at 10 µM; active compounds read low
[13] = target: Mast/stem cell growth factor receptor Kit (Homo sapiens) (UniProt P10721); settings: KINOMEscan 353-kinase binding panel, qPCR, at 10 µM, active compounds read low
[14] = target: Protein kinase C theta type (Homo sapiens) (UniProt Q04759); settings: KINOMEscan 353-kinase binding panel, qPCR; PRKCQ; at 10 µM; active compounds read low
EPHA7 = settings: KINOMEscan 353-kinase binding panel, qPCR, at 10 µM, active compounds read low
ZAP70 = settings: KINOMEscan 353-kinase binding panel, qPCR, at 10 µM, active compounds read low
[15] = target: Maternal embryonic leucine zipper kinase (Homo sapiens) (UniProt Q14680); settings: KINOMEscan 353-kinase binding panel, qPCR; MELK; at 10 µM; active compounds read low
CAMKK1 = settings: KINOMEscan 353-kinase binding panel, qPCR, at 10 µM, active compounds read low
MEK3 = settings: KINOMEscan 353-kinase binding panel, qPCR, at 10 µM, active compounds read low
[16] = target: Serine/threonine-protein kinase PLK1 (Homo sapiens) (UniProt P53350); settings: KINOMEscan 353-kinase binding panel, qPCR, at 10 µM, active compounds read low
NEK7 = settings: KINOMEscan 353-kinase binding panel, qPCR, at 10 µM, active compounds read low
p38-delta = settings: KINOMEscan 353-kinase binding panel, qPCR, at 10 µM, active compounds read low
[17] = target: Hepatocyte growth factor receptor (Homo sapiens) (UniProt P08581); settings: KINOMEscan 353-kinase binding panel, qPCR; MET; at 10 µM; active compounds read low

Measured: percent of control binding

Sequence of Mast/stem cell growth factor receptor Kit (Homo sapiens) (P10721 whole entry, looked up): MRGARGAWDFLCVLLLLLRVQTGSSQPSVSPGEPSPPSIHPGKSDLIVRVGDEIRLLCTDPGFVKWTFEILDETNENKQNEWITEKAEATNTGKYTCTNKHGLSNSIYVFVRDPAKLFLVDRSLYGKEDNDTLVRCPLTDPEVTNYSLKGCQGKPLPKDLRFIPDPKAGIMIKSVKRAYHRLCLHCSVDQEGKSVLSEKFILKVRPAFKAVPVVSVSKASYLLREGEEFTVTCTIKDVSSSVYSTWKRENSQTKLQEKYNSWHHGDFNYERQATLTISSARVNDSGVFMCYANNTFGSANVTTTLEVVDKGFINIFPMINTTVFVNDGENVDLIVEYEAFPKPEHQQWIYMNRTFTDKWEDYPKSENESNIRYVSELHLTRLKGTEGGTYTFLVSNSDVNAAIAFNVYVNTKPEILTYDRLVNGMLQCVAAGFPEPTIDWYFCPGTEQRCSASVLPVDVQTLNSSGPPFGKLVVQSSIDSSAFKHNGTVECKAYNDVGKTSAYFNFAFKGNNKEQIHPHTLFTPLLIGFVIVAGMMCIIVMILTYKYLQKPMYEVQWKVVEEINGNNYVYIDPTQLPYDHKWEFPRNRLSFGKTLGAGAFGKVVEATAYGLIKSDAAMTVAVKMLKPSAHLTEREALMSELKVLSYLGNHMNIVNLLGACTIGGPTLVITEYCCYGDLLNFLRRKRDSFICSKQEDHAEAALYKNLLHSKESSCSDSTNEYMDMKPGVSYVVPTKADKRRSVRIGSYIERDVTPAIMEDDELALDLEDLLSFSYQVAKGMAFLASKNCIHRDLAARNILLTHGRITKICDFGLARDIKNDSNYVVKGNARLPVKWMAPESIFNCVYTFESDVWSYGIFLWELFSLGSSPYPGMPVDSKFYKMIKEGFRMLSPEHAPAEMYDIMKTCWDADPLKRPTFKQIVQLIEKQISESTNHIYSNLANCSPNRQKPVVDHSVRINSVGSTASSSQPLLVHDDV
Sequence of cGMP-dependent protein kinase 1 (Homo sapiens) (Q13976 whole entry, looked up): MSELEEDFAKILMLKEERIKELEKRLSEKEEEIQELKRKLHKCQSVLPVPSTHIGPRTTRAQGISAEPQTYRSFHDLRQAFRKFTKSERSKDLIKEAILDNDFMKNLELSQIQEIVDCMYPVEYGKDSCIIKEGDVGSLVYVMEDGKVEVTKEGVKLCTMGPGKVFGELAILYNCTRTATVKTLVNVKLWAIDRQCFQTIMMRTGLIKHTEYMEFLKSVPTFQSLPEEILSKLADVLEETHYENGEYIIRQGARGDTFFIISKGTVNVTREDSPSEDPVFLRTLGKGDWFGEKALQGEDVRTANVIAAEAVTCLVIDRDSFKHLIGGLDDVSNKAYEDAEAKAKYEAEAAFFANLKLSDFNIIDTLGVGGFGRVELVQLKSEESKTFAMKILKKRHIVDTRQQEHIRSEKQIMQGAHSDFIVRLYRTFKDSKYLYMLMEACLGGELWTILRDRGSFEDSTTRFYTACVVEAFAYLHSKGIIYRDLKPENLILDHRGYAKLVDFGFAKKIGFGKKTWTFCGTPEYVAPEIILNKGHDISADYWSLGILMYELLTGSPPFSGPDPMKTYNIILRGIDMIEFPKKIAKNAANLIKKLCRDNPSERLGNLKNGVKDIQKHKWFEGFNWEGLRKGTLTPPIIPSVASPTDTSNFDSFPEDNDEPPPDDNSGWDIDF
Sequence of RAC-beta serine/threonine-protein kinase (Homo sapiens) (P31751 whole entry, looked up): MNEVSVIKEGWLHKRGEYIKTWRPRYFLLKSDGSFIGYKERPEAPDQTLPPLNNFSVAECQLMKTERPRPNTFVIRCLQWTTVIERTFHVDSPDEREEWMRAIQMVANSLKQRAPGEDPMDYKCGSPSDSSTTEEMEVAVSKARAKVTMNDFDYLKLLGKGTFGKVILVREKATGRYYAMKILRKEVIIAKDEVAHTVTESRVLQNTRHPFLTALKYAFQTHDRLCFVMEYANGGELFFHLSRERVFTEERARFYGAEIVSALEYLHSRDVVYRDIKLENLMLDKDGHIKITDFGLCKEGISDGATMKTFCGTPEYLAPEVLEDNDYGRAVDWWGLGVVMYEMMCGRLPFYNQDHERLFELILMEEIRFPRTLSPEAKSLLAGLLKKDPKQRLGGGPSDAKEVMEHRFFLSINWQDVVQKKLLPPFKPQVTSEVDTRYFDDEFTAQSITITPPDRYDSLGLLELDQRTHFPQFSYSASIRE
Sequence of Leukocyte tyrosine kinase receptor (Homo sapiens) (P29376 whole entry, looked up): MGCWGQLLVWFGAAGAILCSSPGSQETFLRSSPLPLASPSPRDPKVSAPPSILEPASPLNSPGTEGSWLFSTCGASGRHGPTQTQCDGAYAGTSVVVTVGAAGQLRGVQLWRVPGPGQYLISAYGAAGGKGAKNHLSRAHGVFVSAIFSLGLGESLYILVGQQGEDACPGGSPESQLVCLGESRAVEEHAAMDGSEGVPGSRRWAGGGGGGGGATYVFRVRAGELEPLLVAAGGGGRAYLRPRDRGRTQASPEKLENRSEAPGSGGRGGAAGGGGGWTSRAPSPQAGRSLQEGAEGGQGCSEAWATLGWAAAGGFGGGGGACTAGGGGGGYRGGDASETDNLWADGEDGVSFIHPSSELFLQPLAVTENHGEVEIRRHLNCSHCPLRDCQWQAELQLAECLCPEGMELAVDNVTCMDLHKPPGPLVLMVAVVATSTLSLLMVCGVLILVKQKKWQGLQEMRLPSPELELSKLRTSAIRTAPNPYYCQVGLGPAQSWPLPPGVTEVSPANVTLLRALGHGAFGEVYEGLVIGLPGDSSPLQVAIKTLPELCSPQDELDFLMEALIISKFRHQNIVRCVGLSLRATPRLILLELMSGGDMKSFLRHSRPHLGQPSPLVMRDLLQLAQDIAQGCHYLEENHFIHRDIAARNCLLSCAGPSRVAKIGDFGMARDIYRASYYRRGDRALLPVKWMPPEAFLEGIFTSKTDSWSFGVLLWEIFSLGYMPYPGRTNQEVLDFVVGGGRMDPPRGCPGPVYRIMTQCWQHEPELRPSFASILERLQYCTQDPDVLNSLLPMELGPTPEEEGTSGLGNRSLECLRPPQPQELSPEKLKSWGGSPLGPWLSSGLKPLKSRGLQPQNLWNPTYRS
Sequence of Serine/threonine-protein kinase MARK2 (Homo sapiens) (Q7KZI7 whole entry, looked up): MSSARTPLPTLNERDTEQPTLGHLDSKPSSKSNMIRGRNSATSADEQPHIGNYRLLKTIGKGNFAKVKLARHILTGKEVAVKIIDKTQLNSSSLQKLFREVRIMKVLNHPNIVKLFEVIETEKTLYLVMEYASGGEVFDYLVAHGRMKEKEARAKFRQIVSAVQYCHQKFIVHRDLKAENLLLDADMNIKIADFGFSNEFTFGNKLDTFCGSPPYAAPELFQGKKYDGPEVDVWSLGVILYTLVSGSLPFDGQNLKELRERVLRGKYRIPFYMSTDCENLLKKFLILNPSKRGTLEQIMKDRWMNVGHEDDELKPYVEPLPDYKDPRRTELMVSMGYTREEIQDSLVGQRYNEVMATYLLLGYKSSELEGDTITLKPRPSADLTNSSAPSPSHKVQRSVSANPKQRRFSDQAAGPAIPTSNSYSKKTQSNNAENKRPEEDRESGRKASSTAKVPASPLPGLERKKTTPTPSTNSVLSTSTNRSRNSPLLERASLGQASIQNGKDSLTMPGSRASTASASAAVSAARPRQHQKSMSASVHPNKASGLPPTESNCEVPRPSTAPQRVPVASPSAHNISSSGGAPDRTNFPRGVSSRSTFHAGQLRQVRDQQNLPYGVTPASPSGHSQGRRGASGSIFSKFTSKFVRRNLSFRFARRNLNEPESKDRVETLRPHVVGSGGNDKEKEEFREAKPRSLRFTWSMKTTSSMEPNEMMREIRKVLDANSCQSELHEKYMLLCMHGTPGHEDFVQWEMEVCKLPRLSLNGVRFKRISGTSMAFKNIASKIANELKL
Sequence of Platelet-derived growth factor receptor beta (Homo sapiens) (P09619 whole entry, looked up): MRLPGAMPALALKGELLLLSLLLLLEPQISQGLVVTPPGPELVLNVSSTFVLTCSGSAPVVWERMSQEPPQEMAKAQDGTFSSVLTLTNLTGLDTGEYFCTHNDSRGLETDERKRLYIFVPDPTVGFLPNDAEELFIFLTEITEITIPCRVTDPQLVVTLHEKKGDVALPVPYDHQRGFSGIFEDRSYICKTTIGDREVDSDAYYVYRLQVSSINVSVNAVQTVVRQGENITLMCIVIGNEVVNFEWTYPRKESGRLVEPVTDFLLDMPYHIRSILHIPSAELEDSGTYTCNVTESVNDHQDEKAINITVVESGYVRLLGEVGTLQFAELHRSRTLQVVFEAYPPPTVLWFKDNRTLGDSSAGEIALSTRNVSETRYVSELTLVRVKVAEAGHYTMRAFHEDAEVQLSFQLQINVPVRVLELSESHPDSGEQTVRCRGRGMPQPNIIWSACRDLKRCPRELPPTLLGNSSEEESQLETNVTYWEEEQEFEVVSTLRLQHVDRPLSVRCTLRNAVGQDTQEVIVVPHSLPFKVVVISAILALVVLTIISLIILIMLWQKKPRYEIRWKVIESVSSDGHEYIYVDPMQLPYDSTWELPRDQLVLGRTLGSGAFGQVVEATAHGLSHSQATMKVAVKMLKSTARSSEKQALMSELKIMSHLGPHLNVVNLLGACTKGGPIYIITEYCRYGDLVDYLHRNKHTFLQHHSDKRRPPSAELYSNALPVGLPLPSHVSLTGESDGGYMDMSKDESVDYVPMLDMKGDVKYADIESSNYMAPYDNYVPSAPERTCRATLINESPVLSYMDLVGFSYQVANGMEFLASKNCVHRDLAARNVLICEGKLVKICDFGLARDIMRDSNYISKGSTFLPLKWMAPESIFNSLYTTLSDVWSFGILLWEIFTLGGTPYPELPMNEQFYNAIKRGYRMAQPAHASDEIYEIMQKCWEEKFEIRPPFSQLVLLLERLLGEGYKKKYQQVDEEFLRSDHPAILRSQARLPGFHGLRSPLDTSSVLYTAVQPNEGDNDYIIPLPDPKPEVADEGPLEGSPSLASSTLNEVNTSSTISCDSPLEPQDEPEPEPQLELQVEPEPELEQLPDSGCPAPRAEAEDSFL

Cc1cc2nc(NCCCO)n(CC(=O)c3cc(C(C)(C)C)c(O)c(C(C)(C)C)c3)c2cc1C
inactive: [1] 75% | BMPR1A 97% | [2] 54% | [3] 100% | [4] 86% | SRPK2 100% | [5] 100% | RPS6KA1(Kin.Dom.1) 59% | [6] 87% | RIPK2 83% | NEK9 100% | [7] 100% | [8] 100% | TEC 98% | FGFR2 100% | FGR 100% | YSK1 84% | TGFBR1 92% | [9] 100% | RIOK2 96% | [10] 85% | [11] 92% | [12] 84% | [13] 92% | [13]; KIT(D816V) 90% | [13]; KIT(V559D) 95% | [13]; KIT(V559D,T670I) 94% | [13]; KIT(V559D,V654A) 92% | [14] 100% | EPHA7 87% | ZAP70 70% | [15] 93% | CAMKK1 78% | MEK3 100% | [16] 67% | NEK7 97% | p38-delta 100% | [17] 97%
